According to US20250206757A1 (GASHERBRUM BIO, INC., priority 2022, published 2025):

molecular target: GLP-1 Receptor (Homo sapiens, UniProt P43220); test: GLP-1R agonist cAMP stimulation assay (HEK293/GLP1R/CRE-LUC cells, HTRF cAMP dynamic 2 kit); format: cell-based; settings: HEK293/CRE-Luc cell line stably expressing the GLP-1 Receptor; 30 min incubation at 37° C.
Protocol: Activation of GLP-1 receptor is known to stimulate cyclic AMP (cAMP) production in cells which indicates primary coupling to the Gas subunit of the G protein heterotrimeric complex.
To optimize functional activity directed toward Gas coupling, a HEK293/CRE-Luc cell line developed by HDB stably expressing the GLP-1 Receptor was used. 200× concentration of compound working solutions were prepared (Agilent Technologies Bravo) with 1/2 log serial dilution in 384-well Echo LDV plate (Labcyte, Cat #LP-0200). 50 nL/well 200× concentration of compound working solutions were moved to 384-well white low volume plate (Greiner, Cat #784075) using Labcyte ECHO550. 1×10^5 cells/mL HEK293/GLP1R/CRE-LUC (HD Biosciences) cell suspensions prepared with assay buffer [DPBS containing 0.5 mM IBMX (Sigma, Cat #15879) and 0.10% BSA (GENVIEW, Cat #FA016-100g)], 10 μL cell suspensions were added to each well of previous generated assay plate which already contains 50 nL compound at 200× concentration using ThermoFisher Multidrop Combi (1000 cells/well). Seal the plate and incubate at 37° C. with 5% CO2 for 30 min.
After incubation the cAMP assay signal was generated using cAMP dynamic 2 Kit (Cisbio). 5 μL cAMP-d2 working solution was added to each well, followed with 5 μL Anti-cAMP antibody-cryptate working solution added to each well using ThermoFisher Multidrop Combi. Incubate at room temperature for 1 hour protected from light. Read the fluorescence at 665 and 615 nm with Reader PerkinElmer EnVision.

GLP-1 Receptor, sequence (P43220 24-463): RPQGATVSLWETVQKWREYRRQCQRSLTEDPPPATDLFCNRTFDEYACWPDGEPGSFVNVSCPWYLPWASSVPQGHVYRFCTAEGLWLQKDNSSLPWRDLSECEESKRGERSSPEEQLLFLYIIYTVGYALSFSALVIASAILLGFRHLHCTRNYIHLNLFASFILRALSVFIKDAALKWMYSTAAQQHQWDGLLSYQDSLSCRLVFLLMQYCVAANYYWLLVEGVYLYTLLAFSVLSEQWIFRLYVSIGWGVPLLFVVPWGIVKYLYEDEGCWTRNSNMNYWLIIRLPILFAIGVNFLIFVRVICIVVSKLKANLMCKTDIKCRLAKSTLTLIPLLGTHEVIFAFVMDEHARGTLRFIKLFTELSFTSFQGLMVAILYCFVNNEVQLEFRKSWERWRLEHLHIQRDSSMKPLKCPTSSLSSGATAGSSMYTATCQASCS

SMILES	EC50
COC(C)Cn1c(CN2CCc3cc(C(F)(F)F)c(OCc4ccc(Cl)cc4F)nc3C2)nc2cc(-c3nnc(C(F)(F)F)[nH]3)ncc21 (stereo in doubt) [Compound 81, 2-[(4-chloro-2-fluorophenyl)methoxy]-7-({3-[(2S)-2-methoxypropyl]-6-[5-(trifluoromethyl)-4H-1,2,4-triazol-3-yl]-3H-imidazo[4,5-c]pyridin-2-yl}methyl)-3-(trifluoromethyl)-5,6,7,8-tetrahydro-1,7-naphthyridine]	1 to 300 nM
O=c1[nH]c(-c2cnc3c(c2)nc(CN2CCc4ccc(OCc5ccc(Cl)cc5F)nc4C2)n3C[C@@H]2CCO2)no1 [Compound 1, (S)-3-(2-((2-((4-chloro-2-fluorobenzyl)oxy)-5,8-dihydro-1,7-naphthyridin-7(6H)-yl)methyl)-3-(oxetan-2-ylmethyl)-3H-imidazo[4,5-b]pyridin-6-yl)-1,2,4-oxadiazol-5(4H)-one]	1 to 300 nM
O=c1[nH]c(-c2ccc3nc(CN4CCc5ccc(OCc6ccc(Cl)cc6F)nc5C4)n(C[C@@H]4CCO4)c3c2)no1 [Compound 2, (S)-3-(2-((2-((4-chloro-2-fluorobenzyl)oxy)-5,8-dihydro-1,7-naphthyridin-7(6H)-yl)methyl)-1-(oxetan-2-ylmethyl)-1H-benzo[d]imidazol-6-yl)-1,2,4-oxadiazol-5(4H)-one]	1 to 300 nM
Fc1cc(Cl)ccc1COc1nc2c(cc1C1CC1)CCN(Cc1nc3cc(-c4nnc(C(F)(F)F)[nH]4)cnc3n1C[C@@H]1CCO1)C2 [Compound 3, 2-[(4-chloro-2-fluorophenyl)methoxy]-3-cyclopropyl-7-[(3-{[(2S)-oxetan-2-yl]methyl}-6-[5-(trifluoromethyl)-4H-1,2,4-triazol-3-yl]-3H-imidazo[4,5-b]pyridin-2-yl)methyl]-5,6,7,8-tetrahydro-1,7-naphthyridine]	1 to 300 nM
Fc1cc(Cl)ccc1COc1nc2c(cc1C(F)(F)F)CCN(Cc1nc3cc(-c4nnc(C(F)(F)F)[nH]4)ncc3n1C[C@@H]1CCO1)C2 [Compound 4, 2-[(4-chloro-2-fluorophenyl)methoxy]-7-[(3-{[(2S)-oxetan-2-yl]methyl}-6-[5-(trifluoromethyl)-4H-1,2,4-triazol-3-yl]-3H-imidazo[4,5-c]pyridin-2-yl)methyl]-3-(trifluoromethyl)-5,6,7,8-tetrahydro-1,7-naphthyridine]	< 1 nM
Fc1cc(Cl)ccc1COc1nc2c(cc1Cl)CCN(Cc1nc3cc(-c4nnc(C(F)(F)F)[nH]4)ncc3n1C[C@@H]1CCO1)C2 [Compound 5, 3-chloro-2-[(4-chloro-2-fluorophenyl)methoxy]-7-[(3-{1[(2S)-oxetan-2-yl]methyl}-6-[5-(trifluoromethyl)-4H-1,2,4-triazol-3-yl]-3H-imidazo[4,5-c]pyridin-2-yl)methyl]-5,6,7,8-tetrahydro-1,7-naphthyridine]	< 1 nM
Fc1cc(Cl)ccc1COc1nc2c(cc1C(F)(F)F)CCN(Cc1nc3cc(-c4nnc(C(F)(F)F)[nH]4)nnc3n1C[C@@H]1CCO1)C2 [Compound 6, 2-[(4-chloro-2-fluorophenyl)methoxy]-7-[(7-{[(2S)-oxetan-2-yl]methyl}-3-[5-(trifluoromethyl)-4H-1,2,4-triazol-3-yl]-7H-imidazo[4,5-c]pyridazin-6-yl)methyl]-3-(trifluoromethyl)-5,6,7,8-tetrahydro-1,7-naphthyridine]	< 1 nM
Fc1cc(Cl)ccc1COc1nc2c(cc1Cl)CCN(Cc1nc3cc(-c4nnc(C(F)(F)F)[nH]4)nnc3n1C[C@@H]1CCO1)C2 [Compound 7, 3-chloro-2-[(4-chloro-2-fluorophenyl)methoxy]-7-[(7-{[(2S)-oxetan-2-yl]methyl}-3-[5-(trifluoromethyl)-4H-1,2,4-triazol-3-yl]-7H-imidazo[4,5-c]pyridazin-6-yl)methyl]-5,6,7,8-tetrahydro-1,7-naphthyridine]	< 1 nM
N#Cc1nnc(-c2cc3nc(CN4CCc5cc(Cl)c(OCc6ccc(Cl)cc6F)nc5C4)n(C[C@@H]4CCO4)c3cn2)[nH]1 [Compound 8, 5-[2-({3-chloro-2-[(4-chloro-2-fluorophenyl)methoxy]-5,6,7,8-tetrahydro-1,7-naphthyridin-7-yl}methyl)-3-{[(2S)-oxetan-2-yl]methyl}-3H-imidazo[4,5-c]pyridin-6-yl]-4H-1,2,4-triazole-3-carbonitrile]	< 1 nM
N#Cc1nnc(-c2cc3nc(CN4CCc5cc(Cl)c(OCc6c(F)cc(Cl)cc6F)nc5C4)n(C[C@@H]4CCO4)c3cn2)[nH]1 [Compound 9, 5-[2-({3-chloro-2-[(4-chloro-2,6-difluorophenyl)methoxy]-5,6,7,8-tetrahydro-1,7-naphthyridin-7-yl}methyl)-3-{[(2S)-oxetan-2-yl]methyl}-3H-imidazo[4,5-c]pyridin-6-yl]-4H-1,2,4-triazole-3-carbonitrile]	< 1 nM
N#CC1(Cc2cc(-c3nnc(C(F)(F)F)[nH]3)cnc2CN2CCc3cc(C(F)(F)F)c(OCc4ccc(Cl)cc4F)nc3C2)CC1 [Compound 10, 1-{[2-({2-[(4-chloro-2-fluorophenyl)methoxy]-3-(trifluoromethyl)-5,6,7,8-tetrahydro-1,7-naphthyridin-7-yl}methyl)-5-[5-(trifluoromethyl)-4H-1,2,4-triazol-3-yl]pyridin-3-yl]methyl}cyclopropane-1-carbonitrile]	1 to 300 nM
N#CC1(Cc2cc(-c3nnc(C(F)(F)F)[nH]3)cnc2CN2CCc3cc(Cl)c(OCc4ccc(Cl)cc4F)nc3C2)CC1 [Compound 11, 1-{[2-({3-chloro-2-[(4-chloro-2-fluorophenyl)methoxy]-5,6,7,8-tetrahydro-1,7-naphthyridin-7-yl}methyl)-5-[5-(trifluoromethyl)-4H-1,2,4-triazol-3-yl]pyridin-3-yl]methyl}cyclopropane-1-carbonitrile]	> 300 nM
Cc1cc(-c2nnc(C(F)(F)F)[nH]2)cnc1CN1CCc2cc(Cl)c(OCc3ccc(Cl)cc3F)nc2C1 [Compound 12, 3-chloro-2-[(4-chloro-2-fluorophenyl)methoxy]-7-({3-methyl-5-[5-(trifluoromethyl)-4H-1,2,4-triazol-3-yl]pyridin-2-yl}methyl)-5,6,7,8-tetrahydro-1,7-naphthyridine]	> 300 nM
Cc1cc(-c2nnc(C(F)(F)F)[nH]2)nnc1CN1CCc2cc(C(F)(F)F)c(OCc3ccc(Cl)cc3F)nc2C1 [Compound 13, 2-[(4-chloro-2-fluorophenyl)methoxy]-7-({4-methyl-6-[5-(trifluoromethyl)-4H-1,2,4-triazol-3-yl]pyridazin-3-yl}methyl)-3-(trifluoromethyl)-5,6,7,8-tetrahydro-1,7-naphthyridine]	> 300 nM
Fc1cc(Cl)ccc1COc1nc2c(cc1C(F)(F)F)CCN(Cc1nc3cc(-c4nnn[nH]4)ncc3n1C[C@@H]1CCO1)C2 [Compound 14, 2-[(4-chloro-2-fluorophenyl)methoxy]-7-[(3-{[(2S)-oxetan-2-yl]methyl}-6-(1H-1,2,3,4-tetrazol-5-yl)-3H-imidazo[4,5-c]pyridin-2-yl)methyl]-3-(trifluoromethyl)-5,6,7,8-tetrahydro-1,7-naphthyridine]	< 1 nM
Fc1cc(Cl)ccc1COc1nc2c(cc1C(F)(F)F)CCN(Cc1nc3cc(-c4nnn[nH]4)cnc3n1C[C@@H]1CCO1)C2 [Compound 15, 2-[(4-chloro-2-fluorophenyl)methoxy]-7-[(3-{[(2S)-oxetan-2-yl]methyl}-6-(1H-1,2,3,4-tetrazol-5-yl)-3H-imidazo[4,5-b]pyridin-2-yl)methyl]-3-(trifluoromethyl)-5,6,7,8-tetrahydro-1,7-naphthyridine]	< 1 nM
Fc1cc(Cl)ccc1COc1nc2c(cc1C(F)(F)F)CCN(Cc1nc3cc(-c4nnc(C(F)(F)F)[nH]4)cnc3n1C[C@@H]1CCO1)C2 [Compound 16, 2-[(4-chloro-2-fluorophenyl)methoxy]-7-[(3-{[(2S)-oxetan-2-yl]methyl}-6-[5-(trifluoromethyl)-4H-1,2,4-triazol-3-yl]-3H-imidazo[4,5-b]pyridin-2-yl)methyl]-3-(trifluoromethyl)-5,6,7,8-tetrahydro-1,7-naphthyridine]	< 1 nM
N#Cc1nnc(-c2cnc3c(c2)nc(CN2CCc4cc(C(F)(F)F)c(OCc5ccc(Cl)cc5F)nc4C2)n3C[C@@H]2CCO2)[nH]1 [Compound 17, 5-[2-({2-[(4-chloro-2-fluorophenyl)methoxy]-3-(trifluoromethyl)-5,6,7,8-tetrahydro-1,7-naphthyridin-7-yl}methyl)-3-{1[(2S)-oxetan-2-yl]methyl}-3H-imidazo[4,5-b]pyridin-6-yl]-4H-1,2,4-triazole-3-carbonitrile]	< 1 nM
N#Cc1nnc(-c2cc3nc(CN4CCc5cc(C(F)(F)F)c(OCc6ccc(Cl)cc6F)nc5C4)n(C[C@@H]4CCO4)c3cn2)[nH]1 [Compound 20, 5-[2-({2-[(4-chloro-2-fluorophenyl)methoxy]-3-(trifluoromethyl)-5,6,7,8-tetrahydro-1,7-naphthyridin-7-yl}methyl)-3-{[(2S)-oxetan-2-yl]methyl}-3H-imidazo[4,5-c]pyridin-6-yl]-4H-1,2,4-triazole-3-carbonitrile]	< 1 nM
